SMILES strings stand for the structures. Like-named read-outs stand apart in the source and are kept apart here.

Results on 34 compounds are retold here after patent publication US20230212152A1, “INHIBITORS OF CYSTEINE PROTEASES AND METHODS OF USE THEREOF” (priority 2020, published 2023).

One assay concerns the target T1, 229E Mpro (Human coronavirus 229E, UniProt P0C6X1).
T1 construct: 229E Mpro
Nature of the assay: 229E Mpro assay (Table 3). Format: biochemical, HCoV 229E.

The target of a further assay is SARS-CoV2 Mpro (Severe acute respiratory syndrome coronavirus 2, UniProt P0DTD1). Put plainly: SARS-CoV2 Mpro enzymatic assay. The class given is biochemical. As to conditions: 25 nM Mpro, 25 μM substrate.

T1 sequence (P0C6X1 2966-3267): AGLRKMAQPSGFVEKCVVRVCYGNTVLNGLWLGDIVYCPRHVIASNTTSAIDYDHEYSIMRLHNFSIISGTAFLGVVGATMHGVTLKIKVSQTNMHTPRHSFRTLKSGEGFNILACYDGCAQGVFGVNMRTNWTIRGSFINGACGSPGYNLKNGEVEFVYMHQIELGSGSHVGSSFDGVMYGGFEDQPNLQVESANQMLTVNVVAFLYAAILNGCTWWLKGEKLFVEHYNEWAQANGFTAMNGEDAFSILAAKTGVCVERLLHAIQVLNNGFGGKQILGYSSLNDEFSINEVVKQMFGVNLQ
Procedure for 229E Mpro: Compounds are assayed using standard methods to assess compound activity and IC50. […] The assay buffer contains 20 mM of Tris-HCl (pH 7.3), 100 mM of NaCl, 1 mM of EDTA, 5 mM of TCEP and 0.1% BSA.

Regarding `COc1cccc2[nH]c(C(=O)N[C@@H](CC3CC3)C(=O)N[C@H](C#N)C[C@@H]3CCCNC3=O)cc12` (single isomer, unassigned) [271A (Isomer 1)], on 229E Mpro (read-out: 229E Mpro EC50), the EC50 is > 30000 nM.
Same read-out and setting: for `COc1cccc2[nH]c(C(=O)N3CC4(CCC4)CC3C(=O)N[C@H](C#N)C[C@@H]3CCNC3=O)cc12` (single isomer, unassigned) [399A (Isomer 2)] the value was 10000 to 30000 nM; for `Cc1ccn([C@H](CC2CC2)C(=O)N[C@H](C#N)C[C@@H]2CCNC2=O)c(=O)c1NCC(F)(F)F` (single isomer, unassigned) [451 (Isomer 1)], > 30000 nM.
Compound `Cc1ccn(C(CC2CC2)C(=O)N[C@H](C#N)C[C@@H]2CCNC2=O)c(=O)c1NCC(F)(F)F` (single isomer, unassigned) [451 (Isomer 2)] came in with an EC50 on 229E Mpro (229E Mpro EC50) of 10000 to 30000 nM.
As for `N#CC(CC1CCNC1=O)NC(=O)C1CCc2ccc(NCC(=O)Oc3ccccc3)c(=O)n21` (single isomer, unassigned) [483 (Isomer 2)], the EC50 on 229E Mpro (229E Mpro EC50) was > 30000 nM.
As for `COc1cccc2[nH]c(C(=O)N[C@@H](CC3CC3)C(=O)N[C@H](C#N)C[C@@H]3CCCNC3=O)cc12` (single isomer, unassigned) [491A (Isomer 1)], on 229E Mpro (229E Mpro EC50), the EC50 was > 30000 nM.
For the compound `COc1cccc2[nH]c(C(=O)N3C[C@H]4CC[C@H]4[C@@H]3C(=O)N[C@H](C#N)C[C@@H]3CCNC3=O)cc12` (single isomer, unassigned) [547 (Isomer 2)], the EC50 on 229E Mpro (read-out: 229E Mpro EC50) is < 2000 nM.
Consider `Cc1ccn([C@H](CC2CC2)C(=O)N[C@H](C#N)C[C@@H]2CCNC2=O)c(=O)c1NC(=O)OC(C)(C)C` (single isomer, unassigned) [591 (Isomer 1)], for which, at 229E Mpro (read-out: 229E Mpro EC50), the EC50 was > 30000 nM.
The same measure, in the same setting: the figure for `COc1cccc2[nH]c(C(=O)N3CC4(CCCCC4)CC3C(=O)N[C@H](C#N)C[C@@H]3CCCNC3=O)cc12` (single isomer, unassigned) [603a (Isomer 2)] is > 30000 nM.
Consider `COc1cc(Cl)c2[nH]c(C(=O)N3CC4(CCCCC4)CC3C(=O)N[C@H](C#N)C[C@@H]3CCNC3=O)cc2c1` (single isomer, unassigned) [896 (Isomer 1)], for which the IC50 against SARS-CoV2 Mpro is < 2000 nM. Further, on 229E Mpro (read-out: 229E Mpro EC50), the EC50 was < 2000 nM.
In the case of `COc1cc(Cl)c2[nH]c(C(=O)N3CC4(CCCCC4)CC3C(=O)N[C@H](C#N)C[C@@H]3CCNC3=O)cc2c1` (single isomer, unassigned) [896 (Isomer 2)], the IC50 against SARS-CoV2 Mpro was > 30000 nM. Besides, the 50% effective concentration (EC50) on 229E Mpro (read-out: 229E Mpro EC50) is > 30000 nM.
With `CC1(C)CC(C[C@@H](C#N)NC(=O)[C@H](CC2CC2)NC(=O)c2cc3cccc(Cl)c3[nH]2)C(=O)N1` (single isomer, unassigned) [1053 (Isomer 2)], on 229E Mpro (read-out: 229E Mpro EC50), the EC50 is 10000 to 30000 nM.
Turning to `CC(C)(C)[C@H](NC(=O)C(F)(F)F)C(=O)N1CC2(CCC2)CC1C(=O)N[C@H](C#N)C[C@@H]1CC2(CC2)NC1=O` (single isomer, unassigned) [3039a (Isomer 1)], the IC50 against SARS-CoV2 Mpro is < 2000 nM. Moreover, the EC50 on 229E Mpro (229E Mpro EC50) fell in the range of 2000 to 10000 nM.
The matching figures for `CC1(C)C[C@@H](C[C@@H](C#N)NC(=O)C2CC3(CCC3)CN2C(=O)[C@@H](NC(=O)C(F)(F)F)C(C)(C)C)C(=O)N1` (single isomer, unassigned) [3071a (Isomer 1)]: < 2000 nM and 2000 to 10000 nM.
Turning to `CC1(C)C[C@@H](C[C@@H](C#N)NC(=O)C2CC3(CCC3)CN2C(=O)[C@@H](NC(=O)C(F)(F)F)C(C)(C)C)C(=O)N1` (single isomer, unassigned) [3071a (Isomer 2)], the IC50 against SARS-CoV2 Mpro was > 30000 nM. Also, the EC50 at 229E Mpro (229E Mpro EC50) was > 30000 nM.
As for `CC1(C)C[C@@H](C[C@@H](C#N)NC(=O)[C@@H]2[C@@H]3[C@H](CN2C(=O)[C@@H](NC(=O)C(F)(F)F)C(C)(C)C)C3(C)C)C(=O)N1` (single isomer, unassigned) [3075 (Isomer 1)], the IC50 against SARS-CoV2 Mpro was < 2000 nM. Moreover, the EC50 at 229E Mpro (229E Mpro EC50) was > 30000 nM.
In the case of `CC1(C)C[C@@H](C[C@@H](C#N)NC(=O)[C@@H]2[C@@H]3[C@H](CN2C(=O)[C@@H](NC(=O)C(F)(F)F)C(C)(C)C)C3(C)C)C(=O)N1` (single isomer, unassigned) [3075 (Isomer 2)], the IC50 against SARS-CoV2 Mpro was < 2000 nM. In addition, the EC50 on 229E Mpro (229E Mpro EC50) fell in the range of 10000 to 30000 nM.
Consider `COc1cccc2[nH]c(C(=O)N[C@H](CC3CC3)C(=O)N[C@H](C#N)C[C@@H]3CCCNC3=O)cc12` (single isomer, unassigned; isomer 2) [491A (Isomer 2)], for which the EC50 at 229E Mpro (read-out: 229E Mpro EC50) was < 2000 nM.
In the case of `COc1cccc2[nH]c(C(=O)N3C[C@H](C4CCCCC4)C[C@H]3C(=O)N[C@H](C#N)C[C@@H]3CCNC3=O)cc12` [Compound 167, (2S,4S)-N-((S)-1-cyano-2-((S)-2-oxopyrrolidin-3-yl)ethyl)-4-cyclohexyl-1-(4-methoxy-1H-indole-2-carbonyl)pyrrolidine-2-carboxamide], the EC50 on 229E Mpro (read-out: 229E Mpro EC50) is 2000 to 10000 nM.
With `N#C[C@H](C[C@@H]1CCNC1=O)NC(=O)[C@@H]1CS[C@H]2CC[C@H](NCC(F)(F)F)C(=O)N21` [Compound 455, (3R,6S,8aS)-N-[(1S)-1-cyano-2-[(3S)-2-oxopyrrolidin-3-yl]ethyl]-5-oxo-6-(2,2,2-trifluoroethylamino)-2,3,6,7,8,8a-hexahydrothiazolo[3,2-a]pyridine-3-carboxamide], the EC50 on 229E Mpro (read-out: 229E Mpro EC50) is > 30000 nM.
Same read-out and setting: for `N#C[C@H](C[C@@H]1CCNC1=O)NC(=O)[C@@H]1CCc2ccc(NCC(=O)O)c(=O)n21` [Compound 501, 2-[[(3S)-3-[[(1S)-1-cyano-2-[(3S)-2-oxopyrrolidin-3-yl]ethyl]carbamoyl]-5-oxo-2,3-dihydro-1H-indolizin-6-yl]amino]acetic acid] the value was > 30000 nM.
With `CC(C)(C)C[C@H](NC(=O)[C@@H](NC(=O)C(F)(F)F)C(C)(C)C)C(=O)N[C@H](C#N)C[C@@H]1CC2(CC2)NC1=O` [Compound 3037], the IC50 on SARS-CoV2 Mpro was < 2000 nM. Also, the EC50 at 229E Mpro (229E Mpro EC50) is < 2000 nM.
In the case of `CC(C)(C)[C@H](NC(=O)C(F)(F)F)C(=O)N1CC2(CCC2)CC1C(=O)N[C@H](C#N)C[C@@H]1CC2(CC2)NC1=O` (stereo partly drawn) [Compound 3039b], the IC50 against SARS-CoV2 Mpro is < 2000 nM. Besides, the EC50 on 229E Mpro (229E Mpro EC50) is < 2000 nM.
For `CC(C)(C)[C@H](NC(=O)C(F)(F)F)C(=O)N1CC2(CCCCC2)C[C@H]1C(=O)N[C@H](C#N)C[C@@H]1CC2(CC2)NC1=O` [Compound 3041], the IC50 against SARS-CoV2 Mpro was < 2000 nM. The EC50 at 229E Mpro (229E Mpro EC50) was < 2000 nM.
Turning to `CC(C)(C)[C@H](NC(=O)C(F)(F)F)C(=O)N1C[C@H]2[C@@H]([C@H]1C(=O)N[C@H](C#N)C[C@@H]1CC3(CC3)NC1=O)C2(C)C` [Compound 3043], the IC50 against SARS-CoV2 Mpro is < 2000 nM. Besides, the EC50 on 229E Mpro (229E Mpro EC50) is < 2000 nM.
In the case of `CC(C)(C)[C@H](NC(=O)C(F)(F)F)C(=O)N[C@@H](CC1CC1(F)F)C(=O)N[C@H](C#N)C[C@@H]1CC2(CC2)NC1=O` (stereo partly drawn) [Compound 3045], at SARS-CoV2 Mpro, the IC50 is < 2000 nM. Besides, on 229E Mpro (229E Mpro EC50), the EC50 was < 2000 nM.
Turning to `CC1(C)C[C@@H](C[C@@H](C#N)NC(=O)[C@H](CC2CC2)NC(=O)[C@@H](NC(=O)C(F)(F)F)C(C)(C)C)C(=O)N1` [Compound 3065, (S)-N-((S)-1-(((S)-1-cyano-2-((R)-5,5-dimethyl-2-oxopyrrolidin-3-yl)ethyl)amino)-3-cyclopropyl-1-oxopropan-2-yl)-3,3-dimethyl-2-(2,2,2-trifluoroacetamido)butanamide], the IC50 at SARS-CoV2 Mpro was < 2000 nM. The EC50 at 229E Mpro (229E Mpro EC50) was > 30000 nM.
As to `CC(C)(C)C[C@H](NC(=O)[C@@H](NC(=O)C(F)(F)F)C(C)(C)C)C(=O)N[C@H](C#N)C[C@@H]1CC(C)(C)NC1=O` [Compound 3069, (S)-N-((S)-1-cyano-2-((R)-5,5-dimethyl-2-oxopyrrolidin-3-yl)ethyl)-2-((S)-3,3-dimethyl-2-(2,2,2-trifluoroacetamido)butanamido)-4,4-dimethylpentanamide], the IC50 at SARS-CoV2 Mpro was < 2000 nM. Further, the EC50 on 229E Mpro (229E Mpro EC50) was > 30000 nM.
In the case of `CC1(C)C[C@@H](C[C@@H](C#N)NC(=O)[C@@H]2CC3(CCCCC3)CN2C(=O)[C@@H](NC(=O)C(F)(F)F)C(C)(C)C)C(=O)N1` [Compound 3073, (3S)-N-[(1S)-1-cyano-2-[(3R)-5,5-dimethyl-2-oxo-pyrrolidin-3-yl]ethyl]-2-[(2S)-3,3-dimethyl-2-[(2,2,2-trifluoroacetyl)amino]butanoyl]-2-azaspiro[4.5]decane-3-carboxamide], the IC50 at SARS-CoV2 Mpro is < 2000 nM. Further, on 229E Mpro (229E Mpro EC50), the EC50 lay within 2000 to 10000 nM.
On to `CC1(C)C[C@@H](C[C@@H](C#N)NC(=O)[C@@H]2[C@@H]3[C@H](CN2C(=O)[C@@H](NC(=O)C(F)(F)F)C(C)(C)C)C3(C)C)C(=O)N1` [Compound 3075, (1R,2S,5S)-N-((S)-1-cyano-2-((R)-5,5-dimethyl-2-oxopyrrolidin-3-yl)ethyl)-3-((S)-3,3-dimethyl-2-(2,2,2-trifluoroacetamido)butanoyl)-6,6-dimethyl-3-azabicyclo[3.1.0]hexane-2-carboxamide], for which, at SARS-CoV2 Mpro, the IC50 is < 2000 nM. Moreover, the EC50 on 229E Mpro (229E Mpro EC50) lay in the range of 10000 to 30000 nM.
`CC(C)(C)C[C@H](NC(=O)[C@@H](NC(=O)C(F)(F)F)C(C)(C)C)C(=O)N[C@H](C#N)C[C@@H]1CCCNC1=O` [Compound 3129, (S)-N-((S)-1-cyano-2-((S)-2-oxopiperidin-3-yl)ethyl)-2-((S)-3,3-dimethyl-2-(2,2,2-trifluoroacetamido)butanamido)-4,4-dimethylpentanamide]: at SARS-CoV2 Mpro, the IC50 was < 2000 nM. In addition, the EC50 at 229E Mpro (229E Mpro EC50) is < 2000 nM.
`CN(C(=O)[C@@H](NC(=O)C(F)(F)F)C(C)(C)C)[C@@H](CC1CC1)C(=O)N[C@H](C#N)C[C@@H]1CCCNC1=O` [Compound 3131]: the IC50 on SARS-CoV2 Mpro was < 2000 nM. This compound had an EC50 at 229E Mpro (229E Mpro EC50) of 10000 to 30000 nM.
On to `CC(C)(C)[C@H](NC(=O)C(F)(F)F)C(=O)N1C[C@H]2[C@@H]([C@H]1C(=O)N[C@H](C#N)C[C@@H]1CCCNC1=O)C2(C)C` [Compound 3133, (1R,2S,5S)-N-[(1S)-1-cyano-2-[(3S)-2-oxo-3-piperidyl]ethyl]-3-[(2S)-3,3-dimethyl-2-[(2,2,2-trifluoroacetyl)amino]butanoyl]-6,6-dimethyl-3-azabicyclo[3.1.0]hexane-2-carboxamide], for which, at SARS-CoV2 Mpro, the 50% inhibitory concentration (IC50) was < 2000 nM. The EC50 at 229E Mpro (229E Mpro EC50) was < 2000 nM.
Take `CC(C)(C)[C@H](NC(=O)C(F)(F)F)C(=O)N1C[Si](C)(C)C[C@H]1C(=O)N[C@H](C#N)C[C@@H]1CC2(CC2)NC1=O` [Compound 3135]: at SARS-CoV2 Mpro, the IC50 is < 2000 nM. Besides, the EC50 on 229E Mpro (read-out: 229E Mpro EC50) is < 2000 nM.
